Experimental data as given in article PMC5218472 (PLoS Biology, 2017).
Residues, ends and D or L forms follow the SMILES beside them. *: point of attachment. X1 = CC(=O)N[C@@H]1[C@@H](O)[C@H](O[C@@H]2O[C@H](CO)[C@@H](O[C@@H]3O[C@H](CO[C@H]4O[C@H](CO)[C@@H](O)[C@H](O)[C@@H]4O[C@@H]4O[C@H](CO)[C@@H](O[C@@H]5O[C@H](CO)[C@H](O)[C@H](O)[C@H]5O)[C@H](O)[C@H]4NC(C)=O)[C@@H](O)[C@H](O[C@H]4O[C@H](CO)[C@@H](O)[C@H](O)[C@@H]4O[C@@H]4O[C@H](CO)[C@@H](O[C@@H]5O[C@H](CO)[C@H](O)[C@H](O)[C@H]5O)[C@H](O)[C@H]4NC(C)=O)[C@@H]3O)[C@H](O)[C@H]2NC(C)=O)[C@@H](CO)O[C@H]1N*

How the values were obtained:
[1] = In vitro cleavage assay of IL-6R (glyco)peptides with recombinant ADAM17; details: human, isolated enzyme; 50 μM peptide, 25 mM Hepes pH 9.0, recombinant catalytic domain of ADAM17, 16 h, 37°C, reverse phase C18 chromatography, peak areas; mean of 3 independent experiments; read-out: intact peptide after incubation with ADAM17 (untreated peptide = 100), mean
Procedure: (§1) Fig 7 The N- and O-glycosylated sequon adjacent to the cleavage site is of minor importance for IL-6R cleavage. (A) Amino-acid sequence of the two unglycosylated peptides 1(QD) and 2(QA). Peptides were incubated either with or without recombinant ADAM17 for 16 h at 37°C, and the amount of cleaved peptide was analyzed by reversed-phase (RP) chromatography. (B) Amino-acid sequence of the two glycopeptides 3(QD) and 4(QA), which have a GlcNAc attached to the amino-acid residue corresponding to Asn-350 of the IL-6R. Cleavage was determined as described in panel (A). (C) Amino-acid sequence of the two glycopeptides 5(QD) and 6(QA), which have a biantennary N-glycan attached to the amino-acid residue corresponding to Asn-350 of the IL-6R. Cleavage was determined as described in panel (A). (D) Amino-acid sequence of the two glycopeptides 7(QD) and 8(QA), which have a GalNAc attached to the amino-acid residue corresponding toThr-352 of the IL-6R. Cleavage was determined as described in panel (A). (E) Amino-acid sequence of the two glycopeptides 9(QD) and 10(QA), which have a biantennary N-glycan attached to the amino-acid residue corresponding to Asn-350 and a GalNAc attached to the amino-acid residue corresponding toThr-352 of the IL-6R. Cleavage was determined as described in panel (A). All data shown are the mean ± SD from three independent experiments (*p < 0.05, **p < 0.01, ***p < 0.001, compared to the untreated peptide; ^§p < 0.05, compared to the cleaved nonglycosylated peptide).
(§2) Two 1.5 ml reaction tubes were filled with 50 μl peptide (50 μM) solved in 25 mM Hepes (pH 9.0), and 0.5 μl of the recombinant catalytic domain of ADAM17 was added to one of the reaction tubes, whereas the other sample remained untreated. All samples were incubated for 16 h at 37°C. Afterwards, 1,150 μl 0.1% TFA was added to each sample, and the peptides were separated on a reverse phase chromatography column (Multo High Bio-200-C18) from Chromatographie Service (Langerwehe, Germany) using a linear gradient elution with a binary solvent system and a flow rate of 1 ml/min. Solvent A consisted of 0.1% TFA, and solvent B consisted of 100% ACN. After peak integration, peak areas for cleaved and noncleaved peptides were determined.

[2] = target: T1, recombinant catalytic domain of ADAM17 (Homo sapiens, UniProt P78536); test: as above; details: 50 μM peptide, 25 mM Hepes pH 9.0, 16 h, 37°C, RP chromatography
T1 construct: catalytic domain (aa Pro-18 to Val-477) of ADAM17; purchased Enzo Life Sciences GmbH (Lörrach, Germany)
Procedure: as §1, §2

[3] = system: Ba/F3-gp130-IL-6R_DG cells; test: Proliferation in response to IL-6 or Hyper-IL-6 (S4H Fig); format: cell-based; details: highest value = 100, mean of n = 3
Procedure: (§3) Proliferation of the different Ba/F3-gp130-IL-6R cell lines in response to IL-6 and Hyper-IL-6 and of Ba/F3-gp130 cells in response to IL-6 and the two different recombinant sIL-6R variants was determined using the Cell Titer Blue Cell viability assay reagent (Promega, Karlsruhe, Germany), following the manufacturer’s protocol as described previously. Values were measured in triplicates per experiment, and relative light units (RLU) obtained after 60 min were normalized by subtraction of control values obtained after 0 min. The maximum proliferation was set to 100%, and all other values were calculated accordingly.
Supplementary file pbio.2000080.s004.tif: S4 Fig Mutation of Val-356 is sufficient to block ADAM10-mediated proteolysis of the IL-6R and the Asp358Ala variant. (A) HEK293 cells were transiently transfected with Expression plasmids encoding the wildtype IL-6R (PV) or the double mutants (IE, DG) as indicated. Cells were either treated with 1 μM ionomycin for 1 h or DMSO as vehicle control. sIL-6R was precipitated from the supernatant with concanavalin A-covered Sepharose beads, and cells were lysed. Both were analyzed via Western blot, and β-actin served as loading control. One out of three experiments with similar outcome is shown. (B, C) The experiment was performed as described under (A), but sIL-6R generation was analyzed via ELISA. In (B), the amount of sIL-6R generated after ionomycin-stimulation of the wildtype IL-6R (PV) was set to 100%, and all other values were calculated accordingly. In (C), the amount of sIL-6R without stimulation was considered as constitutive shedding and set to 1 and the increase of sIL-6R was calculated. Data shown are the mean ± SD from at least three independent experiments (*p<0.05, ns = no significant difference). (D-F) HEK293 cells were transiently transfected with expression plasmids encoding the wildtype IL-6R (PV) or the single mutants (DV, IV, PE, PG) as indicated. The experiments were performed as described in (A) to (C). (G) ADAM10-mediated proteolysis of the IL-6R variants depicted in Fig 4I was analyzed as described in (B). (H) Equal numbers of Ba/F3-gp130-IL-6R_DG cells were incubated for 48 h with increasing amounts (0–100 ng/ml) of either IL-6 or Hyper-IL-6. One representative experiment out of three performed is shown (mean ± SD, biological triplicates). (TIF) Click here for additional data file.

[4] = system: Ba/F3-gp130-hIL-6R 2N cells; test: Proliferation in response to IL-6 or Hyper-IL-6 (S6B Fig); format: cell-based; details: highest value = 100, mean of n = 3
Text: (§4) In order to analyze a functional role for the determined glycans, we created IL-6R mutants that lacked either one, multiple, or all N-glycosylation sites and stably transduced Ba/F3-gp130 cells with these. […] When we analyzed IL-6-dependent proliferation of the individual cell lines, we could not detect a difference between the wild-type IL-6R (Fig 4K), IL-6R mutants lacking one of the five N-glycosylation sites (Fig 6A–6E), IL-6R mutants lacking two (termed 2N), three (3N), or four N-glycosylation sites (4N, S6B–S6D Fig), or the IL-6R mutant that lacked all five N-glycans (5N, Fig 6F). Similarly, mutation of the O-glycosylation site on Thr-352 had no influence on IL-6 signaling (Fig 6G).
as §3
(§5) Supplementary file pbio.2000080.s006.tif: S6 Fig Cell-surface expression and signaling capacity of different N-glycan mutants. (A) Cell-surface expression of the IL-6R on the individual Ba/F3-gp130-IL-6R cell lines. The stably transduced IL-6R mutant is indicated above the histogram. Staining is shown in color, whereas the control staining is shown in gray. One out of three experiments with similar outcome is shown. (B-D) Equal numbers of cells of the indicated Ba/F3-gp130-hIL-6R cell line were incubated for 48 h with increasing amounts (0–100 ng/ml) of either IL-6 or Hyper-IL-6. One representative experiment out of three performed is shown (mean ± SD, biological triplicates). (TIF) Click here for additional data file.

[5] = system: Ba/F3-gp130-hIL-6R 3N cells; test: Proliferation in response to IL-6 or Hyper-IL-6 (S6C Fig); format: cell-based; details: highest value = 100, mean of n = 3
Text: as §4, §3, §5

[6] = system: Ba/F3-gp130-hIL-6R-4N cells; test: Proliferation in response to IL-6 or Hyper-IL-6 (S6D Fig); format: cell-based; details: highest value = 100, mean of n = 3
Text: as §4, §3, §5

[7] = system: recombinant catalytic domain of ADAM17; test: recombinant catalytic domain of ADAM17 in 25 mM Hepes (pH 9.0); details: 37°C, up to 16 h

T1 sequence (P78536 18-477): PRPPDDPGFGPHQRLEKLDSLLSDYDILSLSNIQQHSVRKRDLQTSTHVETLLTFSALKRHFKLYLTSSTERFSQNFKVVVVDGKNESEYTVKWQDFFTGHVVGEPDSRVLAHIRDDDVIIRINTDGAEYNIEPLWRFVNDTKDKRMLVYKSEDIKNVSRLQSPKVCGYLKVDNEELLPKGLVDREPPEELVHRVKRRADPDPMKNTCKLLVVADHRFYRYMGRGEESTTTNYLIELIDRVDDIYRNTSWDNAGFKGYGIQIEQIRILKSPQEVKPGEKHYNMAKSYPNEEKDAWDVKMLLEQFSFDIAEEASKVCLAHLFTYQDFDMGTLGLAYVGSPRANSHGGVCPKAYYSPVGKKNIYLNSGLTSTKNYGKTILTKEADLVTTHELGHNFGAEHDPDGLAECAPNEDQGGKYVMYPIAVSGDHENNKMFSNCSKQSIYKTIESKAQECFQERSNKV

## CC[C@H](C)[C@H](NC(=O)[C@@H](N)CC(N)=O)C(=O)N[C@@H](CC(C)C)C(=O)N[C@@H](Cc1ccccc1)C(=O)N[C@@H](CCCNC(=N)N)C(=O)N[C@@H](CC(=O)O)C(=O)N[C@@H](CO)C(=O)N[C@@H](C)C(=O)N[C@@H](CC(=O)N[C@@H]1O[C@H](CO)[C@@H](O[C@@H]2O[C@H](CO)[C@@H](O[C@@H]3O[C@H](CO[C@H]4O[C@H](CO)[C@@H](O)[C@H](O)[C@@H]4O[C@@H]4O[C@H](CO)[C@@H](O[C@@H]5O[C@H](CO)[C@H](O)[C@H](O)[C@H]5O)[C@H](O)[C@H]4NC(C)=O)[C@@H](O)[C@H](O[C@H]4O[C@H](CO)[C@@H](O)[C@H](O)[C@@H]4O[C@@H]4O[C@H](CO)[C@@H](O[C@@H]5O[C@H](CO)[C@H](O)[C@H](O)[C@H]5O)[C@H](O)[C@H]4NC(C)=O)[C@@H]3O)[C@H](O)[C@H]2NC(C)=O)[C@H](O)[C@H]1NC(C)=O)C(=O)N[C@@H](C)C(=O)N[C@H](C(=O)N[C@@H](CO)C(=O)N[C@@H](CC(C)C)C(=O)N1CCC[C@H]1C(=O)N[C@H](C(=O)N[C@@H](CCC(N)=O)C(=O)N[C@@H](CC(=O)O)C(=O)N[C@@H](CO)C(=O)N[C@@H](CO)C(=O)N[C@@H](CO)C(=O)N[C@H](C(=O)N1CCC[C@H]1C(=O)N[C@@H](CC(C)C)C(=O)N1CCC[C@H]1C(=O)O)C(C)C)C(C)C)[C@@H](C)O [5(QD)] (H-NILFRDSAD(X1)ATSLPVQDSSSVPLP-OH; N-terminus and C-terminus assumed)
[1]
  remaining at 16 h: 102%
[2]
  cleavage by recombinant ADAM17, in words: blocked cleavage

## CC[C@H](C)[C@H](NC(=O)[C@@H](N)CC(N)=O)C(=O)N[C@@H](CC(C)C)C(=O)N[C@@H](Cc1ccccc1)C(=O)N[C@@H](CCCNC(=N)N)C(=O)N[C@@H](CC(=O)O)C(=O)N[C@@H](CO)C(=O)N[C@@H](C)C(=O)N[C@@H](CC(=O)N[C@@H]1O[C@H](CO)[C@@H](O[C@@H]2O[C@H](CO)[C@@H](O[C@@H]3O[C@H](CO[C@H]4O[C@H](CO)[C@@H](O)[C@H](O)[C@@H]4O[C@@H]4O[C@H](CO)[C@@H](O[C@@H]5O[C@H](CO)[C@H](O)[C@H](O)[C@H]5O)[C@H](O)[C@H]4NC(C)=O)[C@@H](O)[C@H](O[C@H]4O[C@H](CO)[C@@H](O)[C@H](O)[C@@H]4O[C@@H]4O[C@H](CO)[C@@H](O[C@@H]5O[C@H](CO)[C@H](O)[C@H](O)[C@H]5O)[C@H](O)[C@H]4NC(C)=O)[C@@H]3O)[C@H](O)[C@H]2NC(C)=O)[C@H](O)[C@H]1NC(C)=O)C(=O)N[C@@H](C)C(=O)N[C@H](C(=O)N[C@@H](CO)C(=O)N[C@@H](CC(C)C)C(=O)N1CCC[C@H]1C(=O)N[C@H](C(=O)N[C@@H](CCC(N)=O)C(=O)N[C@@H](C)C(=O)N[C@@H](CO)C(=O)N[C@@H](CO)C(=O)N[C@@H](CO)C(=O)N[C@H](C(=O)N1CCC[C@H]1C(=O)N[C@@H](CC(C)C)C(=O)N1CCC[C@H]1C(=O)O)C(C)C)C(C)C)[C@@H](C)O [6(QA)] (H-NILFRDSAD(X1)ATSLPVQASSSVPLP-OH; N-terminus and C-terminus assumed)
[1]
  remaining at 16 h: 2.44%
[2]
  cleavage by recombinant ADAM17, in words: did not alter processing

## IL-6: recombinant human interleukin-6
[3]; cytokine 0.001 ng/ml
  proliferation, Figure S4H, mean: 4.604
[3]; cytokine 0.01 ng/ml
  proliferation, Figure S4H, mean: 11.7535
[3]; cytokine 0.1 ng/ml
  proliferation, Figure S4H, mean: 45.6464
[3]; cytokine 1 ng/ml
  proliferation, Figure S4H, mean: 77.0141
[3]; cytokine 10 ng/ml
  proliferation, Figure S4H, mean: 92.624
[3]; cytokine 100 ng/ml
  proliferation, Figure S4H, mean: 70.8452
[4]; cytokine 0.001 ng/ml
  proliferation, Figure S6B, mean: 10.1623
[4]; cytokine 0.01 ng/ml
  proliferation, Figure S6B, mean: 21.276
[4]; cytokine 0.1 ng/ml
  proliferation, Figure S6B, mean: 41.189
[4]; cytokine 1 ng/ml
  proliferation, Figure S6B, mean: 78.0666
[4]; cytokine 10 ng/ml
  proliferation, Figure S6B, mean: 86.7819
[4]; cytokine 100 ng/ml
  proliferation, Figure S6B, mean: 79.1326
[5]; cytokine 0.001 ng/ml
  proliferation, Figure S6C, mean: 8.138
[5]; cytokine 0.01 ng/ml
  proliferation, Figure S6C, mean: 15.3684
[5]; cytokine 0.1 ng/ml
  proliferation, Figure S6C, mean: 39.4534
[5]; cytokine 1 ng/ml
  proliferation, Figure S6C, mean: 92.5489
[5]; cytokine 10 ng/ml
  proliferation, Figure S6C, mean: 89.1651
[5]; cytokine 100 ng/ml
  proliferation, Figure S6C, mean: 87.3482
[6]; cytokine 0.001 ng/ml
  proliferation, Figure S6D, mean: 7.259
[6]; cytokine 0.01 ng/ml
  proliferation, Figure S6D, mean: 22.724
[6]; cytokine 0.1 ng/ml
  proliferation, Figure S6D, mean: 61.9479
[6]; cytokine 1 ng/ml
  proliferation, Figure S6D, mean: 88.3209
[6]; cytokine 10 ng/ml
  proliferation, Figure S6D, mean: 84.8559
[6]; cytokine 100 ng/ml
  proliferation, Figure S6D, mean: 63.7775

## NILFRDSANATSLPVQDSSSVPLP [3(QD)]
[7]
  not cleaved: 91.4% ± 9.4% intact after 16 h

## NILFRDSANATSLPVQDSSSVPLP [5(QD)]
[7]
  not cleaved: cleavage blocked; mean 101.852% intact after 16 h

## NILFRDSANATSLPVQDSSSVPLP [7(QD)]
[7]
  not cleaved: 91% ± 8% after 16 h

## NILFRDSANATSLPVQDSSSVPLP [9(QD)]
[7]
  not cleaved: cleavage blocked; mean 95.585% intact after 16 h
